This passage reports IC50 results from patent publication US11046691B1 (IDEAYA BIOSCIENCES, INC., priority 2018, dated 2021).

Bounds are passed on as bounds.

Sequence of hMAT2A (P31153 whole entry): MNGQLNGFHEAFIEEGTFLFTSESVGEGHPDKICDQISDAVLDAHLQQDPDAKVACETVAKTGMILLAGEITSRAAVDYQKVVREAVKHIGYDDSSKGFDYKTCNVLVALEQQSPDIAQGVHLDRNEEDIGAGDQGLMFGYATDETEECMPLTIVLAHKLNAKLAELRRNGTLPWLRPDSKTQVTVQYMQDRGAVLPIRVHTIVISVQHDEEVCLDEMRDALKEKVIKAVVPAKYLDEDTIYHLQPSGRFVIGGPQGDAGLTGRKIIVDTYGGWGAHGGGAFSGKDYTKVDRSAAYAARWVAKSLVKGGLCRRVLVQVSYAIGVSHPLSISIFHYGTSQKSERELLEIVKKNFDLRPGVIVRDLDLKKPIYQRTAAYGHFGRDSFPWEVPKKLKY

One test addresses hMAT2A (Homo sapiens (Human), UniProt P31153). The experiment in a line: Phosphate Sensor Fluorescence Assay (MAT2A enzyme inhibition). The note with it: L-methionine 500 uM, ATP 500 uM, class symbols. Format: biochemical. As to the method:
The ability of the compound of present disclosure to inhibit MAT2A enzyme was determined using the Malachite Green or Phosphate Sensor Fluorescence Assay described below.
B. Phosphate Sensor Fluorescence Assay
MAT2A enzyme is incubated with a test compound in DMSO or DMSO and its substrates (L-methionine and ATP) in a microtiter plate. The enzymatic reaction is stopped by the addition of Working Phosphate Sensor Mixture. The plate is analyzed for fluorescence at 450 nm.
Assay Buffer: 50 mM Tris, pH 7.5/50 mM KCl/10 mM MgCl2/0.01% Brij-35/1 mM DTT/0.1% BGG/40 nM PNP/6 uM 7-MEG
L-methionine: 500 uM before the addition of Working Phosphate Sensor Mixture
ATP: 500 uM before the addition of Working Phosphate Sensor Mixture
Test compounds or DMSO were added to the appropriate well suing D300e digital dispenser. 5 μl/well of Assay Buffer was added to the wells corresponding to the negative control and 5 μl/well of MAT2A was added to all the wells except for those corresponding to the negative control. After incubating the plate at room temperature for 15 minutes, 5 μl/well of the 1 mM L-methionine/1 mM ATP mixture was added to all wells. The plate was centrifuged at 1000 rpm for 1 minute and then incubated at room temperature for 1 hour. 5 μl of the Working Phosphate Sensor Mixture was added to all wells and the plate was centrifuged at 1000 rpm for 1 minute. The plate was read for fluorescence at 450 nm after exciting at 430 nm.
Percent inhibition was calculated in Chemical and Biological Information System (CBIS), (ChemInnovation Software Inc.). Curves were fitted by CBIS as % inhibition vs. log [compound concentration] using a 4-parameter inhibition model. Fit=(A+((B−A)/(1+((C/x)^D)))) Res=(y−fit)
For orientation: IC50 means the concentration at which inhibition is half-maximal. A high value points to a need for much substance. As for `O=c1nc(NCC(F)(F)F)c2ccc(C(F)(F)F)cc2n1-c1ccccc1` [Example 118], the IC50 was < 200 nM. The same measure, in the same setting: in the case of `O=c1nc(NCC(F)F)c2ccc(C(F)(F)F)cc2n1-c1ccccc1` [Example 119, 4-[(2,2-difluoroethyl)amino]-1-phenyl-7-(trifluoromethyl)hydroquinazolin-2-one] it was < 200 nM; in that of `COc1nc(=O)n(-c2ncccn2)c2cc(C(F)(F)F)ccc12` [Example 120], 1000 to 10000 nM. The same measure, in the same setting: in the case of `O=c1nc(NCC(F)(F)F)c2ccc(C(F)(F)F)cc2n1-c1ncccn1` [Example 121] it was 200 to 500 nM; in that of `O=c1nc(NCC(F)F)c2ccc(C(F)(F)F)cc2n1-c1ncccn1` [Example 122, 4-[(2,2-difluoroethyl)amino]-1-pyrimidin-2-yl-7-(trifluoromethyl)hydro-quinazolin-2-one], < 200 nM. In turn, `CNc1nc(=O)n(-c2ncccn2)c2cc(C(F)(F)F)ccc12` [Example 123, 4-(methylamino)-1-pyrimidin-2-yl-7-(trifluoromethyl)hydroquinazolin-2-one] displayed a concentration for half-maximal inhibition (IC50) of 200 to 500 nM.

`Nc1nc(=O)n(-c2ncccn2)c2cc(C(F)(F)F)ccc12` [Example 124, 4-amino-1-pyrimidin-2-yl-7-(trifluoro-methyl)hydroquinazolin-2-one] yielded a half-maximal inhibitory concentration (IC50) of 500 to 1000 nM.

Take `Cc1ccccc1-n1c(=O)nc(N)c2ccc(C(F)(F)F)cc21` [Example 125, 4-amino-1-(2-methylphenyl)-7-(trifluoromethyl)hydroquinazolin-2-one]: the IC50 is < 200 nM. The same measure, in the same setting: in the case of `Cc1ccccc1-n1c(=O)nc(NCC(F)(F)F)c2ccc(C(F)(F)F)cc21` [Example 126, 1-(2-methylphenyl)-4-[(2,2,2-trifluoro-ethyl)amino]-7-(trifluoromethyl)hydro-quinazolin-2-one] it was < 200 nM; in that of `Cc1ccccc1-n1c(=O)nc(NCC(F)F)c2ccc(C(F)(F)F)cc21` [Example 127, 4-[(2,2-difluoroethyl)amino]-1-(2-methylphenyl)-7-(trifluoromethyl)hydro-quinazolin-2-one], < 200 nM. Consider `Cc1ccccc1-n1c(=O)nc(N2CC[C@@H](O)C2)c2ccc(C(F)(F)F)cc21` [Example 128, 4-((3R)-3-hydroxypyrrolidin-1-yl)-1-(2-methylphenyl)-7-(trifluoromethyl)hydro-quinazolin-2-one], for which the IC50 was < 200 nM. The same measure, in the same setting: in the case of `CNc1nc(=O)n(-c2ccccc2C)c2cc(C(F)(F)F)ccc12` [Example 129, 4-(methylamino)-1-(2-methylphenyl)-7-(trifluoromethyl)hydroquinazolin-2-one] it was < 200 nM; in that of `O=c1[nH]c(=O)n(-c2ccccc2)c2cc(C3CC3)ccc12` [Example 130, 7-cyclopropyl-1-phenyl-1,3-dihydro-quinazoline-2,4-dione], 500 to 1000 nM; in that of `CNc1nc(=O)n(-c2cccc(C(=O)O)c2)c2cc(Cl)ccc12` [Example 133, 3-[7-chloro-4-(methylamino)-2-oxo-hydroquinazolin-1-yl]benzoic acid], < 200 nM. As for `CNc1nc(=O)n(-c2cccc(C(N)=O)c2)c2cc(Cl)ccc12` [Example 134, 3-[7-chloro-4-(methylamino)-2-oxo-hydroquinazolin-1-yl]benzamide], the IC50 was < 200 nM. Still for that read-out and setting: in the case of `O=c1nc(NCC(F)(F)F)c2ccc(C(F)(F)F)nc2n1-c1ccccc1` [Example 136, 1-phenyl-4-((2,2,2-trifluoroethyl)amino)-7-(trifluoromethyl)pyrido[2,3-d]-pyrimidin-2(1H)-one] it was < 200 nM. Same read-out and setting: as for `O=c1nc(NCC(F)F)c2ccc(C(F)(F)F)nc2n1-c1ccccc1` [Example 137, 4-((2,2-difluoroethyl)amino)-1-phenyl-7-(trifluoromethyl)pyrido[2,3-d]pyrimidin-2(1H)-one], the figure is < 200 nM; as for `Nc1nc(=O)n(-c2ccccc2)c2nc(C(F)(F)F)ccc12` [Example 138, 4-amino-1-phenyl-7-(trifluoromethyl)-hydropyridino[2,3-d]pyrimidin-2-one], < 200 nM; as for `N#Cc1cccc(-n2c(=O)nc(N3CC(O)C3)c3ccc(C(F)(F)F)cc32)c1` [Example 139, 3-[4-(3-hydroxyazetidinyl)-2-oxo-7-(trifluoromethyl)hydroquinazolinyl]-benzenecarbonitrile], < 200 nM. Consider `N#Cc1cccc(-n2c(=O)nc(N)c3ccc(C(F)(F)F)cc32)c1` [Example 140, 3-[4-amino-2-oxo-7-(trifluoromethyl)-hydroquinazolinyl]benzenecarbonitrile], for which the half-maximal inhibitory concentration (IC50) was < 200 nM. Consider `N#Cc1cccc(-n2c(=O)nc(N3CC[C@@H](O)C3)c3ccc(C(F)(F)F)cc32)c1` [Example 141], for which the IC50 is < 200 nM. For the compound `CNc1nc(=O)n(-c2cccc(C#N)c2)c2cc(C(F)(F)F)ccc12` [Example 142, 3[4-(methylamino)-2-oxo-7-(trifluoro-methyl)hydroquinazolinyl]benzene-carbonitrile], the IC50 is < 200 nM.

Regarding `CNc1nc(=O)n(-c2ccccc2)c2cc(C(F)F)ccc12` [Example 143, 7-(difluoromethyl)-4-(methylamino)-1-phenylhydroquinazolin-2-one], the concentration for half-maximal inhibition (IC50) was < 200 nM. `COc1nc(=O)n(-c2ccccc2)c2cc(C(F)(F)F)ccc12` [Example 144, 4-methoxy-1-phenyl-7-(trifluoromethyl)-hydroquinazolin-2-one] returned a 50% inhibitory concentration (IC50) of 200 to 500 nM.

With `O=c1nc(N2CC[C@@H](O)C2)c2ccc(C(F)(F)F)cc2n1-c1ccccc1` [Example 145, 4-((3R)-3-hydroxypyrrolidinyl)-1-phenyl-7-(trifluoromethyl)hydro-quinazolin-2-one], the IC50 was < 200 nM. As for `Nc1nc(=O)n(-c2ccccc2)c2cc(C(F)(F)F)ccc12` [Example 146, 4-amino-1-phenyl-7-(trifluoromethyl)-hydroquinazolin-2-one], the IC50 is < 200 nM. Consider `Cc1ccccc1-n1c(=O)[nH]c(=O)c2ccc(C(F)(F)F)cc21` [Example 147, 1-(2-methylphenyl)-7-(trifluoromethyl)-1,3-dihydroquinazoline-2,4-dione], for which the concentration for half-maximal inhibition (IC50) is < 200 nM. Take `Nc1nc(=O)n(-c2ccccc2Br)c2cc(Cl)ccc12` [Example 149, 4-amino-1-(2-bromophenyl)-7-chloro-hydroquinazolin-2-one]: the concentration for half-maximal inhibition (IC50) is < 200 nM. On to `COc1ccccc1-n1c(=O)nc(N2CC[C@@H](O)C2)c2ccc(Cl)cc21` [Example 151, 4-((3R)-3-hydroxypyrrolidin-1-yl)-7-chloro-1-(2-methoxyphenyl)hydro-quinazolin-2-one], for which the IC50 was < 200 nM. Still for that read-out and setting: as for `CNc1nc(=O)n(-c2cccc(C#N)c2)c2cc(Cl)ccc12` [Example 155, 3-[7-chloro-4-(methylamino)-2-oxo-hydroquinazolinyl]benzenecarbonitrile], the figure is 200 to 500 nM; as for `O=C(O)c1cccc(-n2c(=O)[nH]c(=O)c3ccc(Cl)cc32)c1` [Example 156, 3-(7-chloro-4-hydroxy-2-oxohydro-quinazolinyl)benzoic acid], 1000 to 10000 nM.

Consider `CNc1nc(=O)n(-c2cccc(O)c2C)c2cc(Cl)ccc12` [Example 157, 7-chloro-1-(3-hydroxy-2-methylphenyl)-4-(methylamino)hydroquinazolin-2-one], for which the half-maximal inhibitory concentration (IC50) is < 200 nM. For the compound `CN(C)C(=O)C1CN(c2nc(=O)n(-c3ccccc3)c3cc(Cl)ccc23)C1` [Example 159, [1-(7-chloro-2-oxo-1-phenylhydro-quinazolin-4-yl)azetidin-3-yl]-N,N-dimethylcarboxamide], the half-inhibitory concentration (IC50) is < 200 nM. On the same count and under the same terms, in the case of `CNc1nc(=O)n(-c2ccccc2)c2cc(CCl)ccc12` [Example 160, 7-(chloromethyl)-4-(methylamino)-1-phenylhydroquinazolin-2-one] it was < 200 nM; in that of `O=c1nc(N2CC(O)C2)c2ccc(C(F)(F)F)nc2n1-c1ccccc1Cl` [Example 161, 1-(2-chlorophenyl)-4-(3-hydroxy-azetidinyl)-7-(trifluoromethyl)pyrido-[2,3-d]pyrimidin-2(1H)-one], < 200 nM. `N#Cc1cccc(-n2c(=O)nc(N3CC(O)C3)c3ccc(C(F)(F)F)nc32)c1` [Example 162, 3-(4-(3-hydroxyazetidin-1-yl)-2-oxo-7-(trifluoromethyl)pyrido[2,3-d]pyrimidin-1(2H)-yl)benzonitrile]: the 50% inhibitory concentration (IC50) was < 200 nM.

Turning to `Nc1nc(=O)n(-c2ccccc2)c2cc(Br)ccc12` [Example 163, 4-amino-7-bromo-1-phenylhydro-quinazolin-2-one], the concentration for half-maximal inhibition (IC50) is < 200 nM.

Take `O=c1nc(N2CC(O)C2)c2ccc(C(F)(F)F)cc2n1-c1ccccc1` [Example 164]: the IC50 is < 200 nM.

Regarding `Cc1ccccc1-n1c(=O)nc(N2CC(O)C2)c2ccc(C(F)(F)F)nc21` [Example 165], the IC50 is < 200 nM.

The test is the same for the next values; noted with them: L-methionine 500 uM, ATP 500 uM, numeric bound.
Take `CNc1nc(=O)n(-c2ccccc2)c2cc(Cl)cc(OC3CN(C(=O)OC(C)(C)C)C3)c12` [Example 132, tert-butyl 3-[7-chloro-4-(methylamino)-2-oxo-1-phenylhydroquinazolin-5-yl-oxy]azetidinecarboxylate]: the concentration for half-maximal inhibition (IC50) was > 10000 nM.
